From patent US9623111B2, “Pegylated artesunate derivative, pharmaceutical composition and use thereof” (Institute of Pharmacology and Toxicology Academy of …, priority 2012, dated 2017) come the findings set out here.

One data set relates to Plasmodium berghei. In words: Evaluation of anti-malarial effects (murine malaria 4 day inhibition method, infected Kunming mice). Format: in vivo. Particulars: intraperitoneal injection, dose equivalent to 10 mg/kg artesunate, 4 administrations, D4, mean (range). The protocol: Preparation of animals and pathological models: Kunming mice were purchased from the Animal Center of the Military Medical Science Academy of the PLA, body weight 20±2 g, female, conventionally raised, free diet. The mice were inoculated 1×10^7 plasmodia via intraperitoneal injection on the test day (DO) to infect red blood cells to establish murine malaria infection models.
Dosage regimen: the solutions of artesunate and PEGlyation derivatives thereof were diluted with injection water to a concentration equivalent to 1 mg/ml artesunate, and each mouse was administrated by 0.2 ml intraperitoneal injection (a dose equivalent to 10 mg/kg artesunate). First administration was performed 3 hours after the mice were infected, then administrated once per 24 hours, until the 3rd day (D3) after infection, that was, totally administrated for 4 times. The placebo control group was injected with physiological saline of same volume.
On the 4th day (D4) after administration of 10 mg/kg body weight artesunate and its PEGlyation derivatives, their inhibition rates to Plasmodium berghei were all 80% or more, and there was no significant difference of inhibition rate between the derivatives and artesunate (Table 1).
Regarding `C[C@H]1[C@H](OC(=O)CCC(=O)O)O[C@@H]2O[C@@]3(C)CC[C@H]4[C@H](C)CC[C@@H]1[C@@]24OO3` [Artesunate], the “inhibition rates to Plasmodium berghei, Mean (column group headed Parasitemia (%))” value is reported as 84.0(76.0-94.6) %.
Same read-out and setting: in the case of “Artesunate-NH-PEG20k-NH-Artesunate [Compound 4]” it was 80.8(79.7-87.0) %; in that of “[(Artesunate-)2-Lys-]2-PEG20k [Compound 1]”, 87.2(82.7-92.7) %.
For mPEG20k-Lys2-(Artesunate)4 [Compound 3], the “inhibition rates to Plasmodium berghei, Mean (column group headed Parasitemia (%))” value is listed as 92.1(87.8-95.1) %.
With mPEG20k-Lys-(Artesunate)2 [Compound 2], the “inhibition rates to Plasmodium berghei, Mean (column group headed Parasitemia (%))” value is on record as 87.0(79.3-97.4) %.

Tested on in the next data set: not listed separately
The data set can be described thus: Determination of drug-time curve in vivo (serum dihydroartemisinin by LC-MS after intravenous injection). Particulars: SD rats, single intravenous (caudal vein) injection, dose equivalent to 10 mg/kg artesunate. On the procedure:
Samples: Artesunate, Compounds 1-4.
Preparation of samples: artesunate was dissolved with 5% NaHCO3 physiological saline to obtain 10 mg/ml colorless pellucid solution; Compound 1 was dissolved with injection physiological saline to prepare a colorless pellucid solution containing equivalently 10 mg/ml artesunate.
Animals: SD rats were purchased from the Animal Center of the Military Medical Science Academy of the PLA, body weight 200±10 g, male, conventionally raised, free diet.
Experimental method: solutions of artesunate and Compound 1 samples were administrated to each rat by intravenous injection in an amount of 0.2 ml (a dose equivalent to 10 mg/kg artesunate). Blood samples were collected at 0 min, 10 min, 20 min, 30 min, 45 min, 1 hr, 1.5 hr, 2 hr, 2.5 hr, 3 hr, 4 hr, 6 hr, 8 hr, 10 hr, respectively, and serum concentration of dihydroartemisinin were measured by LC-MS method.
Experimental Results: See FIG. 1.
On to “[(Artesunate-)2-Lys-]2-PEG20k [Compound 1]”, for which the “half-life extended in comparison with artesunate” value was “about 5 times”.
